Data: ChEMBL document CHEMBL1133517, “Design, radiosynthesis, and biodistribution of a new potent and selective ligand for in vivo imaging of the adenosine A(2A) receptor system using positron emission tomography” (J Med Chem, 2000)

Assays:
Rattus norvegicus [1] = species: Rattus norvegicus; test: Biodistribution in rat striatum after 90 min time interval; type: ADME, organism-based; details: in vivo, 1.5 h
Rattus norvegicus [2] = species: Rattus norvegicus; test: Biodistribution in rat lung after 15 min time interval; type: ADME, organism-based; details: in vivo, 0.25 h
Rattus norvegicus [3] = species: Rattus norvegicus; test: Biodistribution in rat post-CTX after 5 min time interval; type: ADME, organism-based; details: in vivo
Rattus norvegicus [4] = species: Rattus norvegicus; test: Biodistribution in rat post-CTX after 60 min time interval; type: ADME, organism-based; details: in vivo, 1 h
Rattus norvegicus [5] = species: Rattus norvegicus; test: Biodistribution in rat muscle after 60 min time interval; type: ADME, organism-based, Muscle tissue; details: in vivo, 1 h
Rattus norvegicus [6] = species: Rattus norvegicus; test: Biodistribution in rat spleen after 15 min time interval; type: ADME, organism-based; details: in vivo, 0.25 h
Rattus norvegicus [7] = species: Rattus norvegicus; test: Biodistribution in rat testes after 15 min time interval; type: ADME, organism-based, Testis; details: in vivo, 0.25 h
Rattus norvegicus [8] = species: Rattus norvegicus; test: Biodistribution in rat thalamus after 5 min time interval; type: ADME, organism-based; details: in vivo
Rattus norvegicus [9] = species: Rattus norvegicus; test: Biodistribution in rat striatum after 5 min time interval; type: ADME, organism-based; details: in vivo
Rattus norvegicus [10] = species: Rattus norvegicus; test: Biodistribution in rat plasma after 5 min time interval; type: ADME, organism-based; details: in vivo
Rattus norvegicus [11] = species: Rattus norvegicus; test: Biodistribution in rat testes after 90 min time interval; type: ADME, organism-based, Testis; details: in vivo, 1.5 h
Rattus norvegicus [12] = species: Rattus norvegicus; test: Biodistribution in rat kidney after 30 min time interval; type: ADME, organism-based; details: in vivo, 0.5 h
Rattus norvegicus [13] = species: Rattus norvegicus; test: Biodistribution in rat anti-CTX after 15 min time interval; type: ADME, organism-based; details: in vivo, 0.25 h
Rattus norvegicus [14] = species: Rattus norvegicus; test: Biodistribution in rat intestine after 30 min time interval; type: ADME, organism-based; details: in vivo, 0.5 h
Rattus norvegicus [15] = species: Rattus norvegicus; test: Biodistribution in rat cerebellem after 5 min time interval; type: ADME, organism-based, Cerebellum; details: in vivo
Rattus norvegicus [16] = species: Rattus norvegicus; test: Biodistribution in rat liver after 90 min time interval; type: ADME, organism-based; details: in vivo, 1.5 h
Rattus norvegicus [17] = species: Rattus norvegicus; test: Biodistribution in rat adrenal after 90 min time interval; type: ADME, organism-based; details: in vivo, 1.5 h
Rattus norvegicus [18] = species: Rattus norvegicus; test: Biodistribution in rat pituitary after 30 min time interval; type: ADME, organism-based, Pituitary gland; details: in vivo, 0.5 h
Rattus norvegicus [19] = species: Rattus norvegicus; test: Biodistribution in rat spleen after 5 min time interval; type: ADME, organism-based; details: in vivo
Rattus norvegicus [20] = species: Rattus norvegicus; test: Biodistribution in rat cerebellem after 90 min time interval; type: ADME, organism-based, Cerebellum; details: in vivo, 1.5 h
Rattus norvegicus [21] = species: Rattus norvegicus; test: Biodistribution in rat trachea after 15 min time interval; type: ADME, organism-based; details: in vivo, 0.25 h
Rattus norvegicus [22] = species: Rattus norvegicus; test: Biodistribution in rat muscle after 15 min time interval; type: ADME, organism-based, Muscle tissue; details: in vivo, 0.25 h
Rattus norvegicus [23] = species: Rattus norvegicus; test: Biodistribution in rat post-CTX after 15 min time interval; type: ADME, organism-based; details: in vivo, 0.25 h
Rattus norvegicus [24] = species: Rattus norvegicus; test: Biodistribution in rat anti-CTX after 60 min time interval; type: ADME, organism-based; details: in vivo, 1 h
Rattus norvegicus [25] = species: Rattus norvegicus; test: Biodistribution in rat thalamus after 60 min time interval; type: ADME, organism-based; details: in vivo, 1 h
Rattus norvegicus [26] = species: Rattus norvegicus; test: Biodistribution in rat heart after 60 min time interval; type: ADME, organism-based; details: in vivo, 1 h
Rattus norvegicus [27] = species: Rattus norvegicus; test: Biodistribution in rat hypothalamus after 15 min time interval; type: ADME, organism-based; details: in vivo, 0.25 h
Rattus norvegicus [28] = species: Rattus norvegicus; test: Biodistribution in rat spleen after 90 min time interval; type: ADME, organism-based; details: in vivo, 1.5 h
Rattus norvegicus [29] = species: Rattus norvegicus; test: Biodistribution in rat hypothalamus after 30 min time interval; type: ADME, organism-based; details: in vivo, 0.5 h
Rattus norvegicus [30] = species: Rattus norvegicus; test: Biodistribution in rat heart after 5 min time interval; type: ADME, organism-based; details: in vivo
Rattus norvegicus [31] = species: Rattus norvegicus; test: Biodistribution in rat blood after 90 min time interval; type: ADME, organism-based; details: in vivo, 1.5 h
Rattus norvegicus [32] = species: Rattus norvegicus; test: Biodistribution in rat thalamus after 90 min time interval; type: ADME, organism-based; details: in vivo, 1.5 h
Rattus norvegicus [33] = species: Rattus norvegicus; test: Biodistribution in rat hippocampus after 90 min time interval; type: ADME, organism-based; details: in vivo, 1.5 h
Rattus norvegicus [34] = species: Rattus norvegicus; test: Biodistribution in rat post-CTX after 30 min time interval; type: ADME, organism-based; details: in vivo, 0.5 h
Rattus norvegicus [35] = species: Rattus norvegicus; test: Biodistribution in rat pituitary after 60 min time interval; type: ADME, organism-based, Pituitary gland; details: in vivo, 1 h
Rattus norvegicus [36] = species: Rattus norvegicus; test: Biodistribution in rat heart after 15 min time interval; type: ADME, organism-based; details: in vivo, 0.25 h
Rattus norvegicus [37] = species: Rattus norvegicus; test: Biodistribution in rat post-CTX after 90 min time interval; type: ADME, organism-based; details: in vivo, 1.5 h
Rattus norvegicus [38] = species: Rattus norvegicus; test: Biodistribution in rat spleen after 60 min time interval; type: ADME, organism-based; details: in vivo, 1 h
Rattus norvegicus [39] = species: Rattus norvegicus; test: Biodistribution in rat cerebellem after 60 min time interval; type: ADME, organism-based, Cerebellum; details: in vivo, 1 h
Rattus norvegicus [40] = species: Rattus norvegicus; test: Biodistribution in rat pons after 90 min time interval; type: ADME, organism-based; details: in vivo, 1.5 h
Rattus norvegicus [41] = species: Rattus norvegicus; test: Biodistribution in rat intestine after 15 min time interval; type: ADME, organism-based; details: in vivo, 0.25 h
Rattus norvegicus [42] = species: Rattus norvegicus; test: Biodistribution in rat pituitary after 15 min time interval; type: ADME, organism-based, Pituitary gland; details: in vivo, 0.25 h
Rattus norvegicus [43] = species: Rattus norvegicus; test: Biodistribution in rat striatum after 60 min time interval; type: ADME, organism-based; details: in vivo, 1 h
Rattus norvegicus [44] = species: Rattus norvegicus; test: Biodistribution in rat blood after 60 min time interval; type: ADME, organism-based; details: in vivo, 1 h
Rattus norvegicus [45] = species: Rattus norvegicus; test: Biodistribution in rat kidney after 90 min time interval; type: ADME, organism-based; details: in vivo, 1.5 h
Rattus norvegicus [46] = species: Rattus norvegicus; test: Biodistribution in rat thalamus after 30 min time interval; type: ADME, organism-based; details: in vivo, 0.5 h
Rattus norvegicus [47] = species: Rattus norvegicus; test: Biodistribution in rat pituitary after 5 min time interval; type: ADME, organism-based, Pituitary gland; details: in vivo
Rattus norvegicus [48] = species: Rattus norvegicus; test: Biodistribution in rat liver after 30 min time interval; type: ADME, organism-based; details: in vivo, 0.5 h
Rattus norvegicus [49] = species: Rattus norvegicus; test: Biodistribution in rat kidney after 60 min time interval; type: ADME, organism-based; details: in vivo, 1 h
Rattus norvegicus [50] = species: Rattus norvegicus; test: Biodistribution in rat adrenal after 5 min time interval; type: ADME, organism-based; details: in vivo

[11CH3]Oc1ccc(CCCn2ncc3c2nc(N)n2nc(-c4ccco4)nc32)cc1 was tested, and the ID/g (Rattus norvegicus [1]) was 0.04%, the ID/g (Rattus norvegicus [2]) was 0.52% and the ID/g (Rattus norvegicus [3]) was 0.19%. The ID/g (Rattus norvegicus [4]) was 0.02%, the ID/g (Rattus norvegicus [5]) was 0.04% and the ID/g (Rattus norvegicus [6]) was 0.12%. The ID/g (Rattus norvegicus [7]) was 0.13%, the ID/g (Rattus norvegicus [8]) was 0.2% and the ID/g (Rattus norvegicus [9]) was 0.43%. The ID/g (Rattus norvegicus [10]) was 0.19%, the ID/g (Rattus norvegicus [11]) was 0.03% and the ID/g (Rattus norvegicus [12]) was 0.24%. The ID/g (Rattus norvegicus [13]) was 0.12%, the ID/g (Rattus norvegicus [14]) was 0.25% and the ID/g (Rattus norvegicus [15]) was 0.19%. It also gave an ID/g (Rattus norvegicus [16]) of 0.37%, an ID/g (Rattus norvegicus [17]) of 0.14% and an ID/g (Rattus norvegicus [18]) of 0.05%. It also gave an ID/g (Rattus norvegicus [19]) of 0.18%, an ID/g (Rattus norvegicus [20]) of 0.02% and an ID/g (Rattus norvegicus [21]) of 0.12%. The ID/g (Rattus norvegicus [22]) was 0.11%, the ID/g (Rattus norvegicus [23]) was 0.1% and the ID/g (Rattus norvegicus [24]) was 0.02%. For the same compound, the ID/g (Rattus norvegicus [25]) was 0.02%, the ID/g (Rattus norvegicus [26]) was 0.04% and the ID/g (Rattus norvegicus [27]) was 0.07%. It also gave an ID/g (Rattus norvegicus [28]) of 0.05%, an ID/g (Rattus norvegicus [29]) of 0.04% and an ID/g (Rattus norvegicus [30]) of 0.26%. For the same compound, the ID/g (Rattus norvegicus [31]) was 0.05%, the ID/g (Rattus norvegicus [32]) was 0.02% and the ID/g (Rattus norvegicus [33]) was 0.02%. For the same compound, the ID/g (Rattus norvegicus [34]) was 0.05%, the ID/g (Rattus norvegicus [35]) was 0.02% and the ID/g (Rattus norvegicus [36]) was 0.15%. It also gave an ID/g (Rattus norvegicus [37]) of 0.02%, an ID/g (Rattus norvegicus [38]) of 0.06% and an ID/g (Rattus norvegicus [39]) of 0.02%. The ID/g (Rattus norvegicus [40]) was 0.02%, the ID/g (Rattus norvegicus [41]) was 0.28% and the ID/g (Rattus norvegicus [42]) was 0.06%. The ID/g (Rattus norvegicus [43]) was 0.06%, the ID/g (Rattus norvegicus [44]) was 0.03% and the ID/g (Rattus norvegicus [45]) was 0.11%. For the same compound, the ID/g (Rattus norvegicus [46]) was 0.05%, the ID/g (Rattus norvegicus [47]) was 0.18% and the ID/g (Rattus norvegicus [48]) was 0.52%. It also gave an ID/g (Rattus norvegicus [49]) of 0.13% and an ID/g (Rattus norvegicus [50]) of 0.85%.
